From ChEMBL document CHEMBL3045872, “The Design and Synthesis of a Novel, Orally Active, Selective ETA Antagonist” (Med Chem Res, 2004)
Each block holds one molecule with its values, some of them ahead of it.

Legend:
[1] = molecular target: T1, Endothelin receptor type B (Homo sapiens, UniProt P24530); experiment: Displacement of [I125]ET1 from Homo sapiens (human) ETB receptor expressed in CHO cells; format: cell-based
T1 sequence (P24530 whole entry): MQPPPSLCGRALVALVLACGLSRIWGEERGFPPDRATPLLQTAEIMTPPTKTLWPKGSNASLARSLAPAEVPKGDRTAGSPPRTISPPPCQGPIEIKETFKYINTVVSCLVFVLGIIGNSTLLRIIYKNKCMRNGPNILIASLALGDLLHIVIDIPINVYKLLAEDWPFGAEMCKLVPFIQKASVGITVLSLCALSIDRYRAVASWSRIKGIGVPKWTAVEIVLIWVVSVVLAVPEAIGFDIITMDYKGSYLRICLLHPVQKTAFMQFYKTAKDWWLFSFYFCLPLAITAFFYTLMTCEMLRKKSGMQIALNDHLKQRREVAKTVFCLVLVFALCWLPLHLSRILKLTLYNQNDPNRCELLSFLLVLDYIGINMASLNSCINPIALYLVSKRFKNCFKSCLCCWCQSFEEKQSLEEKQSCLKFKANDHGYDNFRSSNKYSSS

[2] = Inhibition of endothelin converting enzyme (unknown origin); design: species or system Homo sapiens
Endothelin-1 receptor = molecular target: T2, Endothelin-1 receptor (Homo sapiens, UniProt P25101); experiment: Displacement of [I125]ET1 from Homo sapiens (human) ETA receptor expressed in CHO cells; format: cell-based
T2 sequence (P25101 whole entry): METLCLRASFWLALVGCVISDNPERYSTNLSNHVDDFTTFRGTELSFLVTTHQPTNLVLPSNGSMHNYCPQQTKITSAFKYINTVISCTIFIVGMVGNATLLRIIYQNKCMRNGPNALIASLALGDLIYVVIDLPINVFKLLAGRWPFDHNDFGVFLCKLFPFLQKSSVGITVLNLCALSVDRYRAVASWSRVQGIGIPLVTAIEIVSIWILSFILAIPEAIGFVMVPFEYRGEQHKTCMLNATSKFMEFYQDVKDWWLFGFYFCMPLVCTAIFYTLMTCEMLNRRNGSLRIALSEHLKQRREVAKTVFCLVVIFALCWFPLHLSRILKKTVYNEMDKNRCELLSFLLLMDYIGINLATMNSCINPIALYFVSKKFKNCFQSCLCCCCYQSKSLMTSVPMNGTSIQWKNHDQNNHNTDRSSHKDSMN

[3] = Drug absorption in Rattus norvegicus Sprague-Dawley (rat) at 2 mg/kg, iv; format: ADME, organism-based; design: dose 2 mg/kg, route intravenous; details: in vivo, read-out: Drug absorption
[4] = Permeability of the compound across Homo sapiens (human) Caco2 cells; format: ADME, cell-based; details: Caco-2, read-out: permeability
Rattus norvegicus [5] = experiment: Unbound clearance in Rattus norvegicus Sprague-Dawley (rat) at 2 mg/kg, iv; format: ADME, organism-based; design: dose 2 mg/kg, route intravenous; details: in vivo
[6] = Volume of distribution in Rattus norvegicus Sprague-Dawley (rat) at 2 mg/kg, iv; format: ADME, organism-based; design: dose 2 mg/kg, route intravenous; details: in vivo
[7] = Fraction unbound in Rattus norvegicus Sprague-Dawley (rat) at 2 mg/kg, iv; format: ADME, organism-based; design: dose 2 mg/kg, route intravenous; details: in vivo
Rattus norvegicus [8] = experiment: Toxicity in Rattus norvegicus (rat) at 30 mg/kg, po QD for 5 days; format: organism-based; design: dose 30 mg/kg, route oral; details: in vivo, 120 h
[9] = Half life in Homo sapiens (human) liver microsome at 1 uM; format: ADME; details: liver microsomes
Liver cytosol [10] = experiment: Prodrug conversion in Homo sapiens (human) liver cytosol assessed as (S)-3-(1-(benzo[d][1,3]dioxol-5-yl)-2-(2-methoxy-4-methylphenylsulfonamido)-2-oxoethyl)-1-methyl-1H-indole-6-carboxylic acid formation; format: ADME, tissue-based
Rattus norvegicus [11] = experiment: Tmax in Rattus norvegicus (rat) assessed as (S)-3-(1-(benzo[d][1,3]dioxol-5-yl)-2-(2-methoxy-4-methylphenylsulfonamido)-2-oxoethyl)-1-methyl-1H-indole-6-carboxylic acid level at 2 mg/kg, po; format: ADME, organism-based; design: dose 2 mg/kg, route oral; details: in vivo
Canis familiaris [12] = experiment: Cardiotoxicity in Canis lupus familiaris (dog) assessed as change in ECG at 1.5 to 15 mg/kg, po; format: toxicity, organism-based; design: dose 1.5-15 mg/kg, route oral; details: in vivo
Rattus norvegicus [13] = experiment: Drug absorption in Rattus norvegicus (rat) assessed as (S)-3-(1-(benzo[d][1,3]dioxol-5-yl)-2-(2-methoxy-4-methylphenylsulfonamido)-2-oxoethyl)-1-methyl-1H-indole-6-carboxylic acid level at 2 mg/kg; format: ADME, organism-based; design: dose 2 mg/kg; details: in vivo
[14] = Volume of distribution in Rattus norvegicus (rat) at 2 mg/kg, iv; format: ADME, organism-based; design: dose 2 mg/kg, route intravenous; details: in vivo
Rattus norvegicus [15] = experiment: Cmax in Rattus norvegicus (rat) assessed as (S)-3-(1-(benzo[d][1,3]dioxol-5-yl)-2-(2-methoxy-4-methylphenylsulfonamido)-2-oxoethyl)-1-methyl-1H-indole-6-carboxylic acid level at 2 mg/kg, po; format: ADME, organism-based; design: dose 2 mg/kg, route oral; details: in vivo
Canis familiaris [16] = experiment: Cardiotoxicity in Canis lupus familiaris (dog) assessed as change in heart rate at 1.5 to 15 mg/kg, po; format: toxicity, organism-based; design: dose 1.5-15 mg/kg, route oral; details: in vivo
Canis familiaris [17] = experiment: Cardiotoxicity in Canis lupus familiaris (dog) assessed as change in left ventricular contractility at 1.5 to 15 mg/kg, po; format: toxicity, organism-based, Heart left ventricle; design: dose 1.5-15 mg/kg, route oral; details: in vivo
[18] = Half life in Rattus norvegicus (rat) liver microsome at 1 uM; format: ADME; details: liver microsomes
[19] = Half life in Canis lupus familiaris (dog) liver microsome at 1 uM; format: ADME; details: liver microsomes
Liver cytosol [20] = experiment: Prodrug conversion in male Rattus norvegicus (rat) liver cytosol assessed as (S)-3-(1-(benzo[d][1,3]dioxol-5-yl)-2-(2-methoxy-4-methylphenylsulfonamido)-2-oxoethyl)-1-methyl-1H-indole-6-carboxylic acid formation; format: ADME, tissue-based
[21] = Cmax in Rattus norvegicus (rat) at 2 mg/kg, po; format: ADME, organism-based; design: dose 2 mg/kg, route oral; details: in vivo
[22] = Elimination half life in Rattus norvegicus (rat) at 2 mg/kg, iv; format: ADME, organism-based; design: dose 2 mg/kg, route intravenous; details: in vivo, read-out: beta t1/2 (converted)
Rattus norvegicus [23] = experiment: Prodrug conversion in Rattus norvegicus (rat) assessed as (S)-3-(1-(benzo[d][1,3]dioxol-5-yl)-2-(2-methoxy-4-methylphenylsulfonamido)-2-oxoethyl)-1-methyl-1H-indole-6-carboxylic acid level at 2 mg/kg, po; format: ADME, organism-based; design: dose 2 mg/kg, route oral; details: in vivo
Rattus norvegicus [24] = experiment: Apparent elimination half life in Rattus norvegicus (rat) assessed as (S)-3-(1-(benzo[d][1,3]dioxol-5-yl)-2-(2-methoxy-4-methylphenylsulfonamido)-2-oxoethyl)-1-methyl-1H-indole-6-carboxylic acid level at 2 mg/kg, po; format: ADME, organism-based; design: dose 2 mg/kg, route oral; details: in vivo
[25] = Plasma clearance in Rattus norvegicus (rat) at 2 mg/kg, iv; format: ADME, organism-based; design: dose 2 mg/kg, route intravenous
[26] = Tmax in Rattus norvegicus (rat) at 2 mg/kg, po; format: ADME, organism-based; design: dose 2 mg/kg, route oral; details: in vivo
Liver cytosol [27] = experiment: Prodrug conversion in Sus scrofa (pig) liver cytosol assessed as (S)-3-(1-(benzo[d][1,3]dioxol-5-yl)-2-(2-methoxy-4-methylphenylsulfonamido)-2-oxoethyl)-1-methyl-1H-indole-6-carboxylic acid formation; format: ADME, tissue-based
Rattus norvegicus [28] = experiment: Prodrug conversion in Rattus norvegicus (rat) assessed as (S)-3-(1-(benzo[d][1,3]dioxol-5-yl)-2-(2-methoxy-4-methylphenylsulfonamido)-2-oxoethyl)-1-methyl-1H-indole-6-carboxylic acid level at 2 mg/kg, iv; format: ADME, organism-based; design: dose 2 mg/kg, route intravenous; details: in vivo

IC50 [1]: 0.347 µM
Ki [1]: 1.46 µM
IC50 [2]: 325 µM
IC50 (Endothelin-1 receptor): 0.0042 µM
SMILES: COc1cc(C)ccc1S(=O)(=O)NC(=O)[C@@H](c1ccc2c(c1)OCO2)c1cn(C)c2cc(C(=O)O)ccc12

IC50 [1]: 0.245 µM
Fa [3]: 55%
Papp [4]: 12 nm/s
CL free (Rattus norvegicus [5]): 432 L/h/kg
Vd [6]: 1.2 L/kg
IC50 (Endothelin-1 receptor): 0.0087 µM
Fu [7]: 0.01%
SMILES: COc1cc(C)ccc1S(=O)(=O)NC(=O)C(c1ccc2c(c1)OCO2)c1cn(C)c2cc(CO)ccc12 (configuration not stated)

IC50 [1]: 0.683 µM
Ki [1]: 1.5 µM
half-life at 1 µM [9]: > 2 h
Drug metabolism (Liver cytosol [10]): Active
Tmax (Rattus norvegicus [11]): 4 h
Drug absorption (Rattus norvegicus [13]): 36%
Vd [14]: 0.16 L/kg
Cmax (Rattus norvegicus [15]): 0.083 µg/mL
half-life at 1 µM [18]: > 2 h
IC50 [2]: 765 µM
half-life at 1 µM [19]: > 2 h
Drug metabolism (Liver cytosol [20]): Active
Cmax [21]: 0.048 µg/mL
IC50 (Endothelin-1 receptor): 0.0022 µM
Ki (Endothelin-1 receptor): 0.0022 µM
half-life [22]: 1.1 h
Drug metabolism (Rattus norvegicus [23]): Active
betat1/2(app) (Rattus norvegicus [24]): 9 h
clearance [25]: 0.102 L/h/kg
Tmax [26]: 0.25 h
Drug metabolism (Liver cytosol [27]): Active
Drug metabolism (Rattus norvegicus [28]): Active
SMILES: COc1cc(C)ccc1S(=O)(=O)NC(=O)[C@@H](c1ccc2c(c1)OCO2)c1cn(C)c2cc(CO)ccc12
Activity (Rattus norvegicus [8]): Non-toxic
Activity (Canis familiaris [12]): Non-toxic
Activity (Canis familiaris [16]): Non-toxic
Activity (Canis familiaris [17]): Non-toxic

IC50 [1]: 0.275 µM
Fa [3]: < 5%
Papp [4]: 16 nm/s
CL free (Rattus norvegicus [5]): 79.74 L/h/kg
Vd [6]: 0.6 L/kg
Fu [7]: 0.007%
SMILES: COc1cc(C)ccc1S(=O)(=O)NC(=O)C(c1ccc2c(c1)OCO2)c1cn(C)c2cc(C(N)=O)ccc12 (racemic)

IC50 (Endothelin-1 receptor): 0.56 µM
SMILES: CCn1cc(C(C(=O)NS(=O)(=O)c2ccc(C(C)C)cc2)c2ccc3c(c2)OCO3)c2ccccc21 (racemic)

IC50 [1]: 0.574 µM
Fa [3]: < 5%
Papp [4]: < 5 nm/s
CL free (Rattus norvegicus [5]): 8.28 L/h/kg
Vd [6]: 0.3 L/kg
IC50 (Endothelin-1 receptor): 0.0017 µM
Fu [7]: 0.048%
SMILES: Cn1cc(C(C(=O)NS(=O)(=O)c2ccc(CC(=O)O)cc2)c2ccc3c(c2)OCO3)c2ccc(C(N)=O)cc21 (racemic)

IC50 [1]: 0.65 µM
Fa [3]: < 5%
Papp [4]: < 5 nm/s
CL free (Rattus norvegicus [5]): 36.5 L/h/kg
Vd [6]: 0.6 L/kg
IC50 (Endothelin-1 receptor): 0.0053 µM
Fu [7]: 0.01%
SMILES: COc1cc(C)ccc1S(=O)(=O)NC(=O)C(c1ccc2c(c1)OCO2)c1cn(C)c2cc(C(=O)O)ccc12 (racemic)

IC50 (Endothelin-1 receptor): 0.034 µM
SMILES: Cc1ccc(S(=O)(=O)NC(=O)C(c2ccc3c(c2)OCO3)c2cn(C)c3cc(CO)ccc23)cc1 (racemic)

IC50 [1]: 0.217 µM
IC50 (Endothelin-1 receptor): 0.046 µM
SMILES: COc1cc(C)ccc1S(=O)(=O)NC(=O)C(c1ccc2c(c1)OCO2)c1cn(C)c2cc(Cl)ccc12 (racemic)

IC50 [1]: 0.219 µM
Fa [3]: 100%
Papp [4]: 50 nm/s
CL free (Rattus norvegicus [5]): 104.4 L/h/kg
Vd [6]: 4 L/kg
IC50 (Endothelin-1 receptor): 0.014 µM
Fu [7]: 0.005%
SMILES: COc1cc(C)ccc1S(=O)(=O)NC(=O)C(c1ccc2c(c1)OCO2)c1cn(C)c2cc(F)ccc12 (racemic)

IC50 [1]: 0.906 µM
Fa [3]: 70%
Papp [4]: 200 nm/s
CL free (Rattus norvegicus [5]): 1020 L/h/kg
Vd [6]: 5 L/kg
IC50 (Endothelin-1 receptor): 0.0014 µM
Fu [7]: 0.002%
SMILES: COc1cc(C)ccc1S(=O)(=O)NC(=O)C(c1ccc2c(c1)OCO2)c1cn(C)c2cc(C(C)=O)ccc12 (racemic)

IC50 [1]: 0.421 µM
Papp [4]: 200 nm/s
CL free (Rattus norvegicus [5]): 1140 L/h/kg
Vd [6]: 2.8 L/kg
IC50 (Endothelin-1 receptor): 0.011 µM
Fu [7]: 0.002%
SMILES: COc1cc(C)ccc1S(=O)(=O)NC(=O)C(c1ccc2c(c1)OCO2)c1cn(C)c2cc(C#N)ccc12 (racemic)

IC50 [1]: 1.14 µM
IC50 (Endothelin-1 receptor): 0.0088 µM
SMILES: COCc1ccc2c(C(C(=O)NS(=O)(=O)c3ccc(C)cc3OC)c3ccc4c(c3)OCO4)cn(C)c2c1 (racemic)

IC50 [1]: 0.24 µM
IC50 (Endothelin-1 receptor): 0.018 µM
SMILES: CCOC(=O)c1ccc2c(C(C(=O)NS(=O)(=O)c3ccc(C)cc3OC)c3ccc4c(c3)OCO4)cn(C)c2c1 (racemic)

IC50 [1]: 0.069 µM
SMILES: CCn1cc(C(C(=O)NS(=O)(=O)c2ccc(C(C)C)cc2)c2ccc3c(c2)OCO3)c2ccc(C(=O)O)cc21 (racemic)

IC50 [1]: 0.015 µM
SMILES: CC(C)c1ccc(S(=O)(=O)NC(=O)C(c2ccc3c(c2)OCO3)c2cn(C)c3cc(C(N)=O)ccc23)cc1 (racemic)
